Reference: patent US10570177B2, “P3 peptidylic inhibitors for treating CAG-repeat RNA toxicity in polyglutamine diseases” (The Chinese University of Hong Kong, priority 2017, dated 2020)
Where “and” joins values, the source holds several entries; their conditions need not be identical. Equal entries are not always repeated. Entries after “also recorded” stand apart in the source; their conditions may differ. Starred links: 1 amine or outer side, 2 acyl side, 3 side chain; linkers in the order of their positions; H or OH if unused. Non-standard residues stand in square brackets, D forms with d. No end group written: not given here. gPNA = guanine base linked to N-(2-aminoethyl)-glycine backbone, Nc1nc2c(ncn2CC(=O)N(CCN[*:1])CC(=O)[*:2])c(=O)[nH]1; tPNA = thymine base linked to N-(2-aminoethyl)-glycine backbone, Cc1cn(CC(=O)N(CCN[*:1])CC(=O)[*:2])c(=O)[nH]c1=O; cPNA = cytosine base linked to N-(2-aminoethyl)-glycine backbone, Nc1ccn(CC(=O)N(CCN[*:1])CC(=O)[*:2])c(=O)n1; aPNA = adenine base linked to N-(2-aminoethyl)-glycine backbone, Nc1ncnc2c1ncn2CC(=O)N(CCN[*:1])CC(=O)[*:2]; hArg = N=C(N)NCCCC[C@H](N)C(=O)O; Orn = NCCC[C@H](N)C(=O)O; Dap = NC[C@H](N)C(=O)O; ∗∗ = not defined here

Target: MJDCAG78 RNA
Experiment: Isothermal titration calorimetry binding assay, expanded MJDCAG78 RNA
Conditions: ITC at 25° C.; 0.7 mM peptide titrated into 0.5 μM MJDCAG78 RNA; one binding site model; mean ± S.E.M.
Protocol: Experiments were carried out using a MicroCal iTC200 isothermal titration calorimeter (GE Healthcare) at 25° C. Data were analyzed using the Origin® scientific plotting software version 7 (Microcal Software Inc.). All RNAs and peptides were dissolved in binding buffer (20 mM MOPS, pH 7.0; 300 mM NaCl) and 0.7 mM of peptide was titrated into 0.5 μM of RNA for each experiment. The concentration of RNA was estimated with appropriate extinction coefficients at 260 nm on a Nanodrop 2000 (Thermo Scientific). A reference power of 8 μcal/s was used with an initial 0.5 μl of injection of peptide followed by 2 μl for all subsequent titrations points with a 60 sec initial equilibrium delay and 150 sec pause between injections. The samples were stirred at a speed of 1000 rpm throughout the experiment. The thermal titration data were fitted to the ‘one binding site model’ to determine the dissociation constant (KD). Each experiment was repeated at least 3 times with consistent results obtained.

Substance | Kd | KD
DGKSKGIAAIEFK [P3MT3] | 16 µM and 16.6 µM | –
Ac-Asp-Gly-Lys-Ser-(Orn)-Gly-Ile-Ala-Tyr-Ile-Glu-Phe-Lys-NH2 (Ac-DGKS[Orn]GIAYIEFK-NH2) [P3V17] | – | No binding
DGKSKGIAYIEYK [P3V3] | 1.74 ± 0.67 µM | –
H-gPNA-**-Lys-Ser-Lys-Gly-Ile-Ala-Tyr-Ile-Glu-Phe-Lys-NH2 (H-[gPNA]KSKGIAYIEFK-NH2; not fully specified (residue 1); printed as H-gPNA-**-Lys-Ser-Lys-Gly-Ile-Ala-Tyr-Ile-Glu-Phe-Lys-NH2; also: N-terminal amino group replaced by hydrogen) [P3V26] | 8.85 ± 2.85 µM | –
DGKSKGIAYIEFKGDGKSKGIAYIEFK [P3V21, linear dimer of P3V8] | – | did not show any binding; also recorded: No binding
Ac-Asp-Gly-(hArg)-Ser-Lys-Gly-Ile-Ala-Tyr-Ile-Glu-Phe-Lys-NH2 (Ac-DG[hArg]SKGIAYIEFK-NH2; SMILES CC[C@H](C)[C@H](NC(=O)CNC(=O)[C@H](CCCCN)NC(=O)[C@H](CO)NC(=O)[C@H](CCCCNC(=N)N)NC(=O)CNC(=O)[C@H](CC(=O)O)NC(C)=O)C(=O)N[C@@H](C)C(=O)N[C@@H](Cc1ccc(O)cc1)C(=O)N[C@H](C(=O)N[C@@H](CCC(=O)O)C(=O)N[C@@H](Cc1ccccc1)C(=O)N[C@@H](CCCCN)C(N)=O)[C@@H](C)CC) [P3V14] | – | No binding
DGASKGIAYIEFK [P3MT1] | 31.3 ± 8.29 µM | –
H-tPNA-Asp-Gly-Lys-Ser-Lys-Gly-Ile-Ala-Tyr-Ile-Glu-Phe-Lys-NH2 ([tPNA]DGKSKGIAYIEFK-NH2; also: N-terminal amino group replaced by hydrogen) [P3V10] | 2.2 µM and 2.24 µM | –
Ac-Asp-Gly-(Dap)-Ser-Lys-Gly-Ile-Ala-Tyr-Ile-Glu-Phe-Lys-NH2 (Ac-DG[Dap]SKGIAYIEFK-NH2; SMILES CC[C@H](C)[C@H](NC(=O)CNC(=O)[C@H](CCCCN)NC(=O)[C@H](CO)NC(=O)[C@H](CN)NC(=O)CNC(=O)[C@H](CC(=O)O)NC(C)=O)C(=O)N[C@@H](C)C(=O)N[C@@H](Cc1ccc(O)cc1)C(=O)N[C@H](C(=O)N[C@@H](CCC(=O)O)C(=O)N[C@@H](Cc1ccccc1)C(=O)N[C@@H](CCCCN)C(N)=O)[C@@H](C)CC) [P3V18] | – | No binding
Ac-Asp-Gly-Lys-Ser-(hArg)-Gly-Ile-Ala-Tyr-Ile-Glu-Phe-Lys-NH2 (Ac-DGKS[hArg]GIAYIEFK-NH2; SMILES CC[C@H](C)[C@H](NC(=O)CNC(=O)[C@H](CCCCNC(=N)N)NC(=O)[C@H](CO)NC(=O)[C@H](CCCCN)NC(=O)CNC(=O)[C@H](CC(=O)O)NC(C)=O)C(=O)N[C@@H](C)C(=O)N[C@@H](Cc1ccc(O)cc1)C(=O)N[C@H](C(=O)N[C@@H](CCC(=O)O)C(=O)N[C@@H](Cc1ccccc1)C(=O)N[C@@H](CCCCN)C(N)=O)[C@@H](C)CC) [P3V15] | – | No binding
H-cPNA-gPNA-tPNA-Asp-Gly-Lys-Ser-*-Gly-Ile-Ala-Tyr-Ile-Glu-Phe-Lys-NH2 (H-[cPNA][gPNA][tPNA]DGKSGIAYIEFK-NH2; not fully specified (residue 7); printed as H-cPNA-gPNA-tPNA-Asp-Gly-Lys-Ser-*-Gly-Ile-Ala-Tyr-Ile-Glu-Phe-Lys-NH2; also: N-terminal amino group replaced by hydrogen) [P3V13] | 10.8 ± 3.08 µM | –
Ac-Asp-Gly-(Orn)-Ser-Lys-Gly-Ile-Ala-Tyr-Ile-Glu-Phe-Lys-NH2 (Ac-DG[Orn]SKGIAYIEFK-NH2) [P3V16] | – | No binding
H-Asp-Gly-Lys-Ser-Lys-Gly-Ile-Ala-Tyr-Ile-Glu-Phe-Lys-tPNA-cPNA-gPNA-NH2 (DGKSKGIAYIEFK[tPNA][cPNA][gPNA]-NH2; also: Asp N-terminal amino group replaced by hydrogen) [P3V23] | 233 ± 98.9 µM | –
Ac-Asp-Gly-Lys-Ser-(Dap)-Gly-Ile-Ala-Tyr-Ile-Glu-Phe-Lys-NH2 (Ac-DGKS[Dap]GIAYIEFK-NH2; SMILES CC[C@H](C)[C@H](NC(=O)CNC(=O)[C@H](CN)NC(=O)[C@H](CO)NC(=O)[C@H](CCCCN)NC(=O)CNC(=O)[C@H](CC(=O)O)NC(C)=O)C(=O)N[C@@H](C)C(=O)N[C@@H](Cc1ccc(O)cc1)C(=O)N[C@H](C(=O)N[C@@H](CCC(=O)O)C(=O)N[C@@H](Cc1ccccc1)C(=O)N[C@@H](CCCCN)C(N)=O)[C@@H](C)CC) [P3V19] | – | No binding
DGKSKGIAYIEAK [P3MT4] | 17 µM and 17.4 µM | –
H-Asp-Gly-Lys-Ser-Lys-Gly-Ile-tPNA-*-Ile-Glu-Phe-Lys-NH2 (H-DGKSKGI[tPNA]IEFK-NH2; not fully specified (residue 8); also: Asp N-terminal amino group replaced by hydrogen) [P3V12] | 9.93 ± 2.19 µM | –
DGKSKGIAYIEFKDGKSKGIAYIEFK [P3V20, linear dimer of P3V8] | – | did not show any binding; also recorded: No binding
H-tPNA-**-Lys-Ser-Lys-Gly-Ile-Ala-Tyr-Ile-Glu-Phe-Lys-NH2 (H-[tPNA]KSKGIAYIEFK-NH2; not fully specified (residue 1); printed as H-tPNA-**-Lys-Ser-Lys-Gly-Ile-Ala-Tyr-Ile-Glu-Phe-Lys-NH2; also: N-terminal amino group replaced by hydrogen) [P3V11] | 0.12 µM | –
DGKSKGIAYIEFA [P3MT5] | 51 µM and 51.3 µM | –
H-Asp-Gly-Lys-Ser-Lys-Gly-Ile-Ala-Tyr-Ile-Glu-Phe-Lys-tPNA-NH2 (DGKSKGIAYIEFK[tPNA]-NH2; also: Asp N-terminal amino group replaced by hydrogen) [P3V22] | – | No binding

The next lines start with results.

Kd | Substance | KD
8.28 ± 2.27 µM | H-aPNA-**-Lys-Ser-Lys-Gly-Ile-Ala-Tyr-Ile-Glu-Phe-Lys-NH2 (H-[aPNA]KSKGIAYIEFK-NH2; not fully specified (residue 1); printed as H-aPNA-**-Lys-Ser-Lys-Gly-Ile-Ala-Tyr-Ile-Glu-Phe-Lys-NH2; also: N-terminal amino group replaced by hydrogen) [P3V25] | –
4.44 ± 0.47 µM | DGKSKGIAYIEWK [P3V4] | –
0.96 µM | Hi-cPNA-**-Lys-Ser-Lys-Gly-Ile-Ala-Tyr-Ile-Glu-Phe-Lys-NH2 (H-[cPNA][∗∗]KSKGIAYIEFK-NH2; not fully specified; printed as Hi-cPNA-**-Lys-Ser-Lys-Gly-Ile-Ala-Tyr-Ile-Glu-Phe-Lys-NH2; reading uncertain; also: N-terminal amino group replaced by hydrogen) [P3V24] | –
~0.86 µM and 0.86 µM | DGRSRGIAYIEFK [P3V5] | –
3.67 ± 0.26 µM | DGKSKGIAYIEFK [P3V7] | –
100 µM and 101 µM | DGKSAGIAYIEFK [P3MT2] | –
23 µM and 23.3 µM | DGRSRGIAYIEFR [P3V6] | –
2.2 µM and 2.21 µM | DGKSKGIAWIEFK [P3V2] | –
11.2 ± 4.37 µM | H-cptPNA-**-Lys-Ser-Lys-Gly-Ile-Ala-Tyr-Ile-Glu-Phe-Lys-NH2 (H-XKSKGIAYIEFK-NH2; not fully specified (residue 1); printed as H-cptPNA-**-Lys-Ser-Lys-Gly-Ile-Ala-Tyr-Ile-Glu-Phe-Lys-NH2; also: N-terminal amino group replaced by hydrogen) [P3V27] | –
2.34 ± 0.49 µM | DGRSRGIAYIEFK [P3V9] | –

Same assay, conditions: relative to P3

Substance | improvement of binding affinity to expanded CAG RNA over P3
DGKSKGIAYIEYK [P3V3] | ~2 fold
Asp-(d-Ala)-Lys-Ser-Lys-Gly-Ile-Ala-Tyr-Ile-Glu-Phe-Lys (D[dA]KSKGIAYIEFK) [P3V1] | 4 fold

Next, values leading:

improvement of binding affinity to expanded CAG RNA over P3 | Substance
~4 fold | DGKSKGIAYIEWK [P3V4]
~10 fold | DGRSRGIAYIEFK [P3V5]

Tested on: DsRedCAG100 flies
Experiment: Pseudopupil assay in DsRedCAG100 Drosophila (expanded CAG RNA neurodegeneration)
Type: in vivo
Conditions: 1 μM treatment; 12 day-old flies
Excerpt: Here the DsRedCAG0/100Drosophila model was utilized to investigate the suppressive effects of the P3 analogs on RNA toxicity. In this model, the CAG repeat is located in the 3′ untranslated region of the DsRed reporter gene-=. The transcribed expanded CAG RNA is not translated into polyQ protein, and thus the toxicity is solely attributed to the expression of DsRedCAG100 RNA. In brief, the expression of expanded CAG RNA causes severe retinal degeneration in the animal that can be quantified by a pseudopupil assay^7. Inhibitors that can suppress neurotoxicity will result in the recovery of the number of rhabdomeres within the ommatidium. To test the derivatives, third instar larvae were fed different amounts of peptide dissolved in sucrose solution for 2 hr and then allowed to culture in standard fly food until the flies were 12 days old, at which time they were sacrificed for the pseudopupil assay.
Flies were raised at 21.5° C. on cornmeal medium supplemented with dry yeast. Fly lines bearing UAS-DsRedCAG0 and UAS-DsRedCAG100 were kind gifts of Professor Nancy Bonini (University of Pennsylvania, USA). The gmr-GAL4 fly line was obtained from Bloomington Drosophila Stock Center. For pseudopupil assay, third instar larvae were fed with various amount of respective peptides dissolved in 2% sucrose solution for 2 hr and then continued to culture in standard fly food at 21.5° C.^38. Pseudopupil assay was performed on 12 day-old adult flies as mentioned previously^39. Images were captured by SPOT Insight CCD camera controlled by the SPOT Advanced software (Diagnostic instruments Inc.). Image processing was performed using the Adobe Photoshop CS software (Adobe). Each experiment was repeated at least 3 times (n=10 fly heads), and consistent results were obtained. For viability test of wild-type flies from egg to adult stage, eggs born within 5 hr were collected and cultured in fly food containing 10 or 50 μM of respective peptides at 21.5° C. Viability from egg-to-adult was calculated as the number of adult flies collected divided by the number of eggs examined. Each experiment was repeated for three times (at least 130 eggs were examined in each group). Two batches of independently synthesized peptides were used in the experiments.

Substance | pseudopupil score
DGRSRGIAYIEFK [P3V5] | 3.64±0.22

Same assay, conditions: DsRedCAG100 flies, in words

Substance | suppression of neurotoxicity / retinal degeneration
DGRSRGIAYIEFK [P3V5] | significantly suppressed neurotoxicity
